Results published in patent publication US11524966B1 (Valo Early Discovery, Inc., priority 2017, dated 2022).

Molecular target: T1, USP25 (USP25-His6, Boston Biochem E-546) (Homo sapiens, UniProt Q9UHP3)
T1 construct: His6; purchased Boston Biochem E-546
T1 sequence (Q9UHP3 1-1055): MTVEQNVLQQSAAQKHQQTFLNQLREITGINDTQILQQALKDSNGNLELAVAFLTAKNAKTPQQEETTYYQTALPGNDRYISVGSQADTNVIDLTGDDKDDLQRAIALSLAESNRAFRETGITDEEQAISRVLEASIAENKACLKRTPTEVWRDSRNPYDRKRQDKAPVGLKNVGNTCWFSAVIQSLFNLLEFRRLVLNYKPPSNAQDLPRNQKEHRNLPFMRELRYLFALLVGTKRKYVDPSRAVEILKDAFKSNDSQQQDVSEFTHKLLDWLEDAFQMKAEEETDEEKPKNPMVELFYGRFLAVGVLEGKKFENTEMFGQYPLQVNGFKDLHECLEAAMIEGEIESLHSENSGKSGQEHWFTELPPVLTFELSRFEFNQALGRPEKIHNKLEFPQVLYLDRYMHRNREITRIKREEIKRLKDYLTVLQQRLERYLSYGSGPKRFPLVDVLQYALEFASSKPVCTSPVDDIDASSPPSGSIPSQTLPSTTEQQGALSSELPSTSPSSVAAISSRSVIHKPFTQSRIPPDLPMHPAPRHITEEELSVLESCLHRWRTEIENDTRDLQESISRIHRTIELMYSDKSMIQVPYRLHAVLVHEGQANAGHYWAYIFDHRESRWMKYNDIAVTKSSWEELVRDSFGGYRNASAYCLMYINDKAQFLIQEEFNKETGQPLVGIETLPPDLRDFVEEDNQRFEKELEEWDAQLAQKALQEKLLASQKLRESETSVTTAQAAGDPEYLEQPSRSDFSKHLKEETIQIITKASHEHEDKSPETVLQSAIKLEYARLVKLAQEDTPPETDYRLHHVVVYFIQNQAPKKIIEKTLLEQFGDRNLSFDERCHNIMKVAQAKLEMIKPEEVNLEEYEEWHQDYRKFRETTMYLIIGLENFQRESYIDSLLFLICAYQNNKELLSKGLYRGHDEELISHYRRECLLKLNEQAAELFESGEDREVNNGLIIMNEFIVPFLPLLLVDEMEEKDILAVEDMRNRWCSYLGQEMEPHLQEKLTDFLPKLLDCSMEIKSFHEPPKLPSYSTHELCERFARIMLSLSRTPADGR
Experiment: Ubiquitin-Rhodamine 110 Assay for USP25 Activity, Example A-2
Type: biochemical
Settings: Ubiquitin-Rhodamine 110 assay, Example A-2; read-out: USP25 A-2 IC50 range
Method in brief: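 USP25-His6 (75 pM) was preincubated with compound (10-point, 3-fold series, 25 μM to 1.3 nM) for 30 min in 20 mM Tris-HCl pH 8.0, 3 mM BME, 0.03% BGG, 0.01% Triton X-100. Ub-Rh110 (25 nM, <<Km) was then added for 45 min at room temperature, citric acid-stopped, and fluorescence read at 485/535 nm.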

| SMILES | IC50 [µM] |
| --- | --- |
| Nc1c(C(=O)N[C@H]2COc3cc(N4CCNCC4)ccc3C2)sc2nc(C3CC3)sc12 [Example 45] | 0.2 to 2 |
| Cc1nc2sc(C(=O)N[C@@H]3COc4cc(N5CC6CCC(C5)N6)c(F)cc4C3)c(N)c2s1 [Example 46, N-((3S)-7-(3 8-diazabicyclo[3.2.1]octan-3-yl)-6-fluorochroman-3-yl)-6-amino-2-methylthieno[2,3-d]thiazole-5-carboxamide] | 0.2 to 2 |
| Cc1nc2sc(C(=O)N[C@H]3COc4cc(N5CC6CCC(C5)N6)c(F)cc4C3)c(N)c2s1 [Example 47, N-((3R)-7-(3,8-diazabicyclo[3.2.1]octan-3-yl)-6-fluorochroman-3-yl)-6-amino-2-methylthieno[2,3-d]thiazole-5-carboxamide] | > 2 |
| Cc1ccc2c(N)c(C(=O)N[C@H]3COc4cc(N5CCNCC5)cc(Cl)c4C3)sc2n1 [Example 48, (R)-3-amino-N-(5-chloro-7-(piperazin-1-yl)chroman-3-yl)-6-methylthieno[2,3-b]pyridine-2-carboxamide] | 0.05 to 0.2 |
| Cc1ccc2c(N)c(C(=O)N[C@@H]3COc4cc(N5CCNCC5)cc(Cl)c4C3)sc2n1 [Example 49, (S)-3-amino-N-(5-chloro-7-(piperazin-1-yl)chroman-3-yl)-6-methylthieno[2,3-b]pyridine-2-carboxamide] | > 2 |
| O=C(N[C@H]1COc2cc(N3CC4CCC(C3)N4)ccc2C1)c1cnc2c(c1)CCCN2 [Example 50, N-((3R)-7-(3,8-diazabicyclo[3.2.1]octan-3-yl)chroman-3-yl)-5,6,7,8-tetrahydro-1,8-naphthyridine-3-carboxamide] | 0.2 to 2 |
| O=C(N[C@H]1COc2cc(N3CC4CCC(C3)N4)ccc2C1)c1cnc2c(c1)CCCO2 [Example 51, N-((3R)-7-(3,8-diazabicyclo[3.2.1]octan-3-yl)chroman-3-yl)-3,4-dihydro-2H-pyrano[2,3-b]pyridine-6-carboxamide] | > 2 |
| O=C(N[C@H]1COc2cc(N3CCNCC3)ccc2C1)c1ccc(NCc2ccccc2)nc1 [Example 52, (R)-6-(benzylamino)-N-(7-(piperazin-1-yl)chroman-3-yl)nicotinamide] | 0.2 to 2 |
| C[C@H](Nc1ccc(C(=O)N[C@H]2COc3cc(N4CCNCC4)ccc3C2)cn1)c1ccccc1 [Example 53, 6-(((S)-1-phenylethyl)amino)-N-((R)-7-(piperazin-1-yl)chroman-3-yl)nicotinamide] | > 2 |
| C[C@@H](Nc1ccc(C(=O)N[C@H]2COc3cc(N4CCNCC4)ccc3C2)cn1)c1ccccc1 [Example 54, 6-(((R)-1-phenylethyl)amino)-N-((R)-7-(piperazin-1-yl)chroman-3-yl)nicotinamide] | > 2 |
| Cc1ccc2c(N)c(C(=O)N[C@H]3COc4c(F)c(N5CCNCC5)cc(F)c4C3)sc2n1 [Example 55, (R)-3-amino-N-(5,8-difluoro-7-(piperazin-1-yl)chroman-3-yl)-6-methylthieno[2,3-b]pyridine-2-carboxamide] | 0.05 to 0.2 |
| Cc1nc2sc(C(=O)N[C@H]3COc4c(F)c(N5CCNCC5)cc(F)c4C3)c(N)c2s1 [Example 56, (R)-6-amino-N-(5,8-difluoro-7-(piperazin-1-yl)chroman-3-yl)-2-methylthieno[2,3-d]thiazole-5-carboxamide] | 0.2 to 2 |
| O=C(N[C@H]1COc2cc(N3CCNCC3)ccc2C1)c1cnc2c(c1)CC[C@H]2O [Example 57, (R)-7-hydroxy-N-((R)-7-(piperazin-1-yl)chroman-3-yl)-6,7-dihydro-5H-cyclopenta[b]pyridine-3-carboxamide] | > 2 |
| O=C(N[C@H]1COc2cc(N3CCNCC3)ccc2C1)c1cnc2c(c1)CC[C@@H]2O [Example 58, (S)-7-hydroxy-N-((R )-7-(piperazin-1-yl)chroman-3-yl)-6,7-dihydro-5H-cyclopenta[b]pyridine-3-carboxamide] | > 2 |
| O=C(N[C@H]1COc2cc(N3CCNCC3)ccc2C1)c1cnc2c(ccn2Cc2ccccc2)c1 [Example 59, (R)-1-benzyl-N-(7-(piperazin-1-yl)chroman-3-yl)-1H-pyrrolo[2,3-b]pyridine-5-carboxamide] | 0.001 to 0.05 |
